From patent US20120071458A1, “METHODS FOR TREATING OBESITY” (priority 2006, published 2012)
Read-outs that look alike come from different tables or passages of the source.

Columns and labels:
[1] = cited from earlier work
[2] = AEGR-733/ezetimibe combination therapy patient study: percentage change in body mass; assay type: in vivo, human
Source text: The primary parameter of efficacy in this study is the percentage change in body mass after 12 weeks of therapy.
Approximately 85 subjects were randomized into one of three treatment arms with equal probability. […] Enrolled patients had initial BMIs of both greater than and less than 30 kg/m^2. Patients were not instructed to implement lifestyle changes to induce weight loss. Patients were placed on a heart healthy low fat diet 4-5 weeks prior to start of dosing.
In treatment arm 1, subjects received two capsules: AEGR-733 (5 mg) plus an ezetimibe placebo. In effect, treatment arm 1 represents monotherapy with AEGR-733. In treatment arm 2, subjects received two capsules: an AEGR-733 placebo plus ezetimibe (10 mg). In effect treatment arm 2 represents monotherapy with ezetimibe. In treatment arm 3, subjects received two capsules: an AEGR-733 (5 mg) capsule plus an ezetimibe (10 mg) capsule. Treatment arm 3 patients, in effect, received a combination therapy.
After 4 weeks of treatment, subjects in arms 1 and 3 received a step-up in concentration of AEGR-733 from 5 mg to 7.5 mg for 4 weeks. Thereafter, subjects in arms 1 and 3 received a second step-up in concentration in AEGR-733 from 7.5 mg to 10 mg for 4 more additional weeks of treatment. Subjects in arm 2 continued to receive AEGR-733 matching placebo for the entire 12 weeks of treatment. Subjects randomized to ezetimibe 10 mg in arms 2 and 3 and ezetimibe placebo in arm 1 remained on these doses for the entire 12-week treatment period.
Throughout the study, changes in body weight of the subjects are measured as part of vital signs collection.
FIG. 3 depicts the same data only for those patients with a BMI of greater than 30 kg/m^2. FIG. 4 depicts the same data only for those patients with a BMI of less than or equal to 30 kg/m^2.

[3] = entire cohort, after 12 weeks of daily administration (FIG. 1), AEGR-733 5 then 7.5 then 10 mg, ezetimibe 10 mg
[4] = patients with initial BMI greater than 30 kg/m^2 (FIG. 3), after 12 weeks
[5] = patients with initial BMI less than 30 kg/m^2 (FIG. 4), after 12 weeks

Compound	adverse events ([1]; 25 mg/day)	percent change in body mass [2, 3] [%]	percent change in body mass [2, 4] [%]	percent change in body mass [2, 5]	adverse events ([1]; 80 mg/day)	adverse events ([1]; 160 mg/day)
O=C(NC1CCN(CCCCC2(C(=O)NCC(F)(F)F)c3ccccc3-c3ccccc32)CC1)c1ccccc1-c1ccc(C(F)(F)F)cc1 [AEGR-733, N-(2,2,2-Trifluorethyl)-9-[4-[4-[[[4′-(trifluoromethyl)[1,1′biphenyl]-2-Y1]carbonyl]amino]-1-piperidinyl]butyl]9H-fluorene-9-carboxamide]	found to cause gastrointestinal disorders, abnormalities in liver function and/or hepatic steatosis	−1.0	−0.4	−1.4%	–	–
O=C1[C@H](CC[C@H](O)c2ccc(F)cc2)[C@@H](c2ccc(O)cc2)N1c1ccc(F)cc1 [ezetimibe]	–	−0.2	−1.0	+0.4%	–	–
Cc1cc(C)c2c3ccccc3n(Cc3ccc(C(C(=O)NC(CO)c4ccccc4)C4CCCC4)cc3)c2n1 [implitapide, (2S)-2-cyclopentyl-2-[4-[2,4-dimethyl-9H-pyrido[2,3-b]indol-9-yl)methyl]phenyl]-N-[(1S)-2-hydroxy-1-phenylethyl]ethanamide]	–	–	–	–	found to cause gastrointestinal disorders, abnormalities in liver function and/or hepatic steatosis	found to cause gastrointestinal disorders, abnormalities in liver function and/or hepatic steatosis
